Assay results taken from US20020115867A1, “Imidazolyl/benzimidazolyl-terminated alkylamino ethynyl alanine amino diol compounds for treatment of hypertension” (priority 1992, published 2002).

Molecular target: T1, human renin (Homo sapiens, UniProt P00797)
T1 construct: purchased National Institute for Biological Standards, London
T1 sequence (P00797 67-406): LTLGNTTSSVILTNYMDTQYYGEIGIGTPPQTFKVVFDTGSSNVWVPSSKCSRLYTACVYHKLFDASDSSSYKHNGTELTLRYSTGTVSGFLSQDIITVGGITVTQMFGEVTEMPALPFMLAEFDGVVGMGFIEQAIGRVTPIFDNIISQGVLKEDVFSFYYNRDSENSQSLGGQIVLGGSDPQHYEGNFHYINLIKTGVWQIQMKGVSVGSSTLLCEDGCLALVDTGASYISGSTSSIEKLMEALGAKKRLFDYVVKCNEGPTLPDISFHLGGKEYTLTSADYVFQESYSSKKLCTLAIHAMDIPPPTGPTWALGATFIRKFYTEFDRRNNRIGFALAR
Experiment: Human renin inhibition in vitro
Format: biochemical
Conditions: human plasma angiotensinogen, pH 7.4, 37° C., two hours; angiotensin I by radioimmunoassay
Procedure: Compounds of Formula I were evaluated as inhibitors of human renin in an in vitro assay, as follows: This human renin inhibition test has been previously described in detail [Papaioannou et al., Clinical and Experimental Hypertension, A7(9), 1243-1257 (1985)]. Human renin was obtained from the National Institute for Biological Standards, London. An incubation mixture was prepared containing the following components: in a total volume of 0.25 mL: 100 mM Tris-acetate buffer at pH 7.4, 25×10^−6 Goldblatt units of renin, 0.05 mL of plasma from human volunteers taking oral contraceptives, 6.0 mM Na-EDTA, 2.4 mM phenylmethyl sulfonyl fluoride, 1.5 mM 8-hydroxyquinoline, 0.4 mg/mL bovine serum albumin (BSA), and 0.024 mg/mL neomycin sulfate. This mixture was incubated for two hours at 37° C. in the presence or absence of renin inhibitors. The produced angiotensin I was determined by radioimmunoassay (New England Nuclear kit). Test compounds to be assayed were dissolved in DMSO and diluted with 100 mM Tris-acetate buffer at pH 7.4 containing 0.5% BSA to the appropriate concentration. The final concentration of organic solvent in the reaction mixture was less than 1%. Control incubations at 37° C. were used to correct for effects of organic solvent on renin activity.

With C#CC[C@H](NC(=O)[C@@H](CC(=O)N(C)CCn1ccnc1)Cc1ccccc1)C(=O)N[C@@H](CC1CCCCC1)[C@@H](O)[C@@H](O)CC(C)C (relative stereo) [Example 1, N^1-[1R*-[[[1S,1R*-(cyclohexylmethyl)-2S*,3R*-dihydroxy-5-methylhexyl]amino]carbonyl]-3-butynyl]-N^4-[2-(1H-imidazol-1-yl)ethyl]-N^4-methyl-2S*-(phenylmethyl)butanediamide] the IC50 was 0.18 nM.
